Literature values, collected in paper PMC9732253, “Inhibition of the Phosphatidylinositol-3 Kinase Pathway Using Bimiralisib in Loss-of-Function NOTCH1-Mutant Head and Neck Cancer” (The Oncologist, 2022).

Tested on: mTOR
Conditions: cited from earlier work

## Nc1cc(C(F)(F)F)c(-c2nc(N3CCOCC3)nc(N3CCOCC3)n2)cn1 [Bimiralisib, 5-(4,6-dimorpholino-1,3,5-triazin-2-yl)-4-(trifluoromethyl)pyridin-2-amine]
  Inhibition of mTOR: potently inhibits
